Test results from US12171756B2, “NLRP3 modulators” (Innate Tumor Immunity, Inc., priority 2017, dated 2024).

Tests used:
human TLR7 = molecular target: T1, human TLR7 (Homo sapiens, UniProt Q9NYK1); test: In vitro human TLR7 binding reporter assay (HEK-Blue, NF-kB/AP1-inducible SEAP); type: cell-based; conditions: HEK-Blue human TLR7 SEAP reporter cells; activity range classes; read-out: TLR7 Agonist EC50
T1 construct: host or cells: human HEK-Blue cells (HEK293-derived) co-expressing TLR7 and an NF-kB/AP1-inducible SEAP reporter
T1 sequence (Q9NYK1 27-1049): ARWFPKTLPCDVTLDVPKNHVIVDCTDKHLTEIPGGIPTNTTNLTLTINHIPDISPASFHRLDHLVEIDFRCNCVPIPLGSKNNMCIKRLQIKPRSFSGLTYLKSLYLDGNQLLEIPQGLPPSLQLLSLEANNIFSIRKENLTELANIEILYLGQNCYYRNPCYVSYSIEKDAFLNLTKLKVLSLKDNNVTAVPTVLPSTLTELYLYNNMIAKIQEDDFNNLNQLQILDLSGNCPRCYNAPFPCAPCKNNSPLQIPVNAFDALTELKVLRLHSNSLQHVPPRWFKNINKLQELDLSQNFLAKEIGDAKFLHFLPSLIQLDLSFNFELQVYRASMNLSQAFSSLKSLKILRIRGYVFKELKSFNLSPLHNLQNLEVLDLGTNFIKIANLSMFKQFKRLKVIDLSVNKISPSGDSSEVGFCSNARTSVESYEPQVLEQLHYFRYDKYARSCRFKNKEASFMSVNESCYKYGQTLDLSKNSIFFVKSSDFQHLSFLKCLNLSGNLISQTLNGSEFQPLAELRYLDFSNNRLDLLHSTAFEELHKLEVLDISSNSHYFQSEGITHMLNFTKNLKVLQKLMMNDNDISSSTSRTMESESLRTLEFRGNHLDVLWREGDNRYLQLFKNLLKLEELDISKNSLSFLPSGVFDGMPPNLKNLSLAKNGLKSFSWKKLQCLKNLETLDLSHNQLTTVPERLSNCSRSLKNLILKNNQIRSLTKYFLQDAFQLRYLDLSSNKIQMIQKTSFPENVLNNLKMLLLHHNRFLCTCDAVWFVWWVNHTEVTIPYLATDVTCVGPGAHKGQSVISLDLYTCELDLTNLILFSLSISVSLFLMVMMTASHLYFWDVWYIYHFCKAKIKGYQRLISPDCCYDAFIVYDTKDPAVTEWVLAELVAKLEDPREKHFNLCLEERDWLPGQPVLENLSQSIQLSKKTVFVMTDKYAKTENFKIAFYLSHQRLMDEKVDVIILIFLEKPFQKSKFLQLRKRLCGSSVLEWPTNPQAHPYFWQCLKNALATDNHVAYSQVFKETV
Summary of the method: (§1)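 EC50s come from NF-kB/AP1-driven SEAP secretion in HEK-Blue cells expressing TLR7 or TLR8, measured with Quanti-Blue after an 18 h compound incubation. Maximal response is defined by a 50 μM reference standard.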

[1] = test system: IL-1β production in PMA-differentiated THP-1 cells; test: Measurement of IL-1β production in PMA-differentiated THP-1 cells (ELISA, 4 hours); type: cell-based, human; conditions: Homo sapiens, THP-1, human IL-1β production, assayed using one or more of the described procedures, read-out: NLRP3 hIL1B IC50
Summary of the method: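 IL-1β released into supernatant was measured by ELISA after a 4-hour compound exposure (final DMSO 1%, concentrations such as 100 down to 0.1 μM). Cells: THP-1 pretreated 24 h with 10 μg/ml PMA, then trypsinized and seeded at 1×10^6/ml in 2% FBS RPMI.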

human TLR8 = molecular target: T2, human TLR8 (Homo sapiens, UniProt Q9NR97); test: In vitro human TLR8 binding reporter assay (HEK-Blue, NF-kB/AP1-inducible SEAP); type: cell-based; conditions: HEK-Blue human TLR8 SEAP reporter cells; activity range classes; read-out: TLR8 Agonist EC50
T2 construct: host or cells: human HEK-Blue cells (HEK293-derived) co-expressing TLR8 and an NF-kB/AP1-inducible SEAP reporter
T2 sequence (Q9NR97 27-1041): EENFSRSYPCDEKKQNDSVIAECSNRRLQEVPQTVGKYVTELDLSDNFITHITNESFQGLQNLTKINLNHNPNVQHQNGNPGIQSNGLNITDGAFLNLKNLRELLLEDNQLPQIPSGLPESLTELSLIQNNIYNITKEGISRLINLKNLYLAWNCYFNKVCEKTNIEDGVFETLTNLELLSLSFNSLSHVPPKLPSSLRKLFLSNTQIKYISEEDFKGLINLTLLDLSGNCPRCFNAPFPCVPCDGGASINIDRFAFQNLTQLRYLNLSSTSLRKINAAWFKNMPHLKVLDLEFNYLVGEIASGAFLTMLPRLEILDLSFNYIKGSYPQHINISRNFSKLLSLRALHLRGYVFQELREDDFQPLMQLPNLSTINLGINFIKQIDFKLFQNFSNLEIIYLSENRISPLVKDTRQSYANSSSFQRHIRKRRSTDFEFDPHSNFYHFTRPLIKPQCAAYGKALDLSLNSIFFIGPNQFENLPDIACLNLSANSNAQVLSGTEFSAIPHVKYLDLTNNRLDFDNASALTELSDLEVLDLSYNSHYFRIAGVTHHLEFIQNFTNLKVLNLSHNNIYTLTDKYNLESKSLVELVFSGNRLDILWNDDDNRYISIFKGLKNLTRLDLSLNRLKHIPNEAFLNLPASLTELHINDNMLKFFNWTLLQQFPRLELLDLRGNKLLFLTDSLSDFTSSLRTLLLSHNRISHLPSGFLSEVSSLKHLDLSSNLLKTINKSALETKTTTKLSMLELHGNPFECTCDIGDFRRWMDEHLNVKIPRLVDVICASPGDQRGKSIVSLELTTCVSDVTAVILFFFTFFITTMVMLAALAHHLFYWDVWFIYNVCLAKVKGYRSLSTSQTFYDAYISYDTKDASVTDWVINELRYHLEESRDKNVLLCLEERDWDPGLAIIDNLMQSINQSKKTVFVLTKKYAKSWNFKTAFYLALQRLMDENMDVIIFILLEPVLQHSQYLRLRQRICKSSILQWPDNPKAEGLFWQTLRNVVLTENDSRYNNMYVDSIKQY
Summary of the method: as §1

| SMILES | EC50 (human TLR7) [µM] | IC50 [1] [nM] | EC50 (human TLR8) [µM] |
| --- | --- | --- | --- |
| Nc1cc(N[C@@H]2CCCC[C@@H]2O)c2ccc(-c3ccn[nH]3)cc2n1 [Compound 251] | > 100 | 370 | > 100 |
| Cn1cncc1CNc1cc(N)nc2cc(-c3ccn[nH]3)ccc12 [Compound 252] | > 100 | 1690 | > 100 |
| COCC(O)CNc1cc(N)nc2cc(-c3ccn[nH]3)ccc12 (stereo not drawn) [Compound 254] | > 100 | 210 | > 100 |
| COCCNc1cc(N)nc2cc(-c3ccn[nH]3)ccc12 [Compound 255] | > 100 | 270 | > 100 |
| Nc1cc(NCc2ccccc2)c2ccc(-c3ccn[nH]3)cc2n1 [Compound 256] | > 100 | 220 | > 100 |
| CS(=O)(=O)Nc1ccc(CNc2cc(N)nc3cc(-c4ccn[nH]4)ccc23)cc1 [Compound 258] | > 100 | 1840 | > 100 |
| COc1cccc(CNc2cc(N)nc3cc(-c4ccn[nH]4)ccc23)c1 [Compound 259] | > 100 | 640 | > 100 |
| Nc1cc(NCCc2cc[nH]n2)c2ccc(-c3ccn[nH]3)cc2n1 [Compound 261] | > 100 | 140 | > 100 |
| Nc1cc(NCCn2cccn2)c2ccc(-c3ccn[nH]3)cc2n1 [Compound 262] | > 100 | 120 | > 100 |
| Nc1cc(N2CCCOCC2)c2ccc(-c3ccn[nH]3)cc2n1 [Compound 265] | > 100 | 350 | > 100 |
| Nc1cc(NC[C@@H]2CNCCO2)c2ccc(-c3ccn[nH]3)cc2n1 [Compound 267] | > 100 | 1590 | > 100 |
| Nc1cc(NC[C@@H]2COCCN2)c2ccc(-c3ccn[nH]3)cc2n1 [Compound 268] | > 100 | 970 | > 100 |
| CC(C)(C)OC(=O)N1CC(Nc2cc(N)nc3cc(-c4ccn[nH]4)ccc23)C1 [Compound 270] | > 100 | 7370 | > 100 |
| Nc1cc(N2CCC[C@@H]2CO)c2ccc(-c3ccn[nH]3)cc2n1 [Compound 272] | > 100 | 6220 | > 100 |
| Nc1cc(NC2CCC2)c2ccc(-c3ccn[nH]3)cc2n1 [Compound 273] | > 100 | 170 | > 100 |
| Nc1cc(N2CCCC(CO)C2)c2ccc(-c3ccn[nH]3)cc2n1 (stereo not drawn) [Compound 274] | > 100 | 1980 | > 100 |
| Nc1cc(N[C@@H]2CCOC2)c2ccc(-c3ccn[nH]3)cc2n1 [Compound 276] | > 100 | 520 | > 100 |
| Nc1cc(N[C@H]2CCOC2)c2ccc(-c3ccn[nH]3)cc2n1 [Compound 277] | > 100 | 220 | > 100 |
| Nc1cc(NC2CCOCC2)c2ccc(-c3ccn[nH]3)cc2n1 [Compound 278] | > 100 | 1310 | > 100 |
| Nc1cc(NC2CCCOC2)c2ccc(-c3ccn[nH]3)cc2n1 (stereo not drawn) [Compound 279] | > 100 | 330 | > 100 |
| Nc1cc(NC2COC2)c2ccc(-c3ccn[nH]3)cc2n1 [Compound 280] | > 100 | 1570 | > 100 |
| Nc1cc(NC2CCCCC2)c2ccc(-c3ccn[nH]3)cc2n1 [Compound 281] | > 100 | 580 | > 100 |
| Nc1cc(N[C@H]2CC[C@@H](O)CC2)c2ccc(-c3ccn[nH]3)cc2n1 [Compound 283] | > 100 | 1700 | > 100 |
| Nc1cc(NCCc2cccnc2)c2ccc(-c3ccn[nH]3)cc2n1 [Compound 284] | > 100 | 380 | > 100 |
| Nc1cc(NC[C@H]2CCCN2)c2ccc(-c3cc[nH]n3)cc2n1 [Compound 285] | > 100 | 1560 | > 100 |
| Nc1cc(N2CCCNCC2)c2ccc(-c3cc[nH]n3)cc2n1 [Compound 286] | > 100 | 13100 | > 100 |

Second part, the compound after the results:

| EC50 (human TLR7) [µM] | IC50 [1] [nM] | EC50 (human TLR8) [µM] | SMILES |
| --- | --- | --- | --- |
| > 100 | 270 | > 100 | CNc1cc(N)nc2cc(-c3ccn[nH]3)ccc12 [Compound 253] |
| > 100 | 680 | > 100 | CS(=O)(=O)Nc1cccc(CNc2cc(N)nc3cc(-c4ccn[nH]4)ccc23)c1 [Compound 257] |
| > 100 | 320 | > 100 | Nc1cc(NCc2cccc(F)c2)c2ccc(-c3ccn[nH]3)cc2n1 [Compound 260] |
| > 100 | 2870 | > 100 | CN(Cc1cc[nH]n1)c1cc(N)nc2cc(-c3ccn[nH]3)ccc12 [Compound 263] |
| > 100 | 2890 | > 100 | CN(Cc1cccnc1)c1cc(N)nc2cc(-c3ccn[nH]3)ccc12 [Compound 264] |
| > 100 | 390 | > 100 | Nc1cc(NCC2COCCO2)c2ccc(-c3ccn[nH]3)cc2n1 (stereo not drawn) [Compound 266] |
| > 100 | 1150 | > 100 | Nc1cc(NC[C@H]2COCCN2)c2ccc(-c3ccn[nH]3)cc2n1 [Compound 269] |
| > 100 | 360 | > 100 | Nc1cc(N2CC(F)(F)C2)c2ccc(-c3ccn[nH]3)cc2n1 [Compound 271] |
| > 100 | 200 | > 100 | Nc1cc(NC2CCOC2)c2ccc(-c3ccn[nH]3)cc2n1 (stereo not drawn) [Compound 275] |
| > 100 | 5660 | > 100 | Nc1cc(N[C@H]2CC[C@H](O)CC2)c2ccc(-c3ccn[nH]3)cc2n1 [Compound 282] |
| > 100 | 700 | > 100 | Nc1cc(NC[C@@H](O)CO)c2ccc(-c3ccn[nH]3)cc2n1 [Compound 287] |
| > 100 | 390 | > 100 | Nc1cc(N[C@H]2CCCOC2)c2ccc(-c3ccn[nH]3)cc2n1 [Compound 288] |
